From the supplement of paper PMC11061612 come the findings set out here.

For assay [1], the system named is NB(TU)1-10 (Neuroblastoma). The assay is described as follows: Bliss excess, mean over the matrix (fraction); higher = more synergy. Summed up:
(§1)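 Bliss excess equals the observed combination effect minus the expected value EA + EB − EA·EB, where EA and EB are the effects of each agent alone. Combination Emax is the second-highest inhibition within the matrix. Inhibition was scaled from CellTiter-Glo 2.0 luminescence, with 0 set by vehicle wells and 1 by blank wells, after 72 hours of two-drug dosing of cells plated in 1536-well plates.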

Assay [2] has as its system SW756 (Cervical Carcinoma). The assay is described as follows: combination Emax (second highest fraction inhibited in the dose matrix, 72 h); higher = more inhibition; extreme values may be limits of the assay. An outline of the steps:
as §1

In assay [3] the test system is NCI-H1781 (Lung Adenocarcinoma). Described as above. Summed up: as §1
The test system of assay [4] is NB(TU)1-10 (Neuroblastoma). Described as above. Summed up: as §1
In assay [5] the test system is BB49-HNC (Head and Neck Carcinoma). The assay is described as follows: Bliss excess, mean over the matrix (fraction); higher = more synergy. An outline of the steps: as §1
For assay [6], the system named is NCI-H211 (Small Cell Lung Carcinoma). The description is as above. An outline of the steps: as §1
In assay [7] the test system is BB49-HNC (Head and Neck Carcinoma). The assay is described as follows: combination Emax (second highest fraction inhibited in the dose matrix, 72 h); higher = more inhibition; extreme values may be limits of the assay. Summed up: as §1
For assay [8], the system named is NCI-H211 (Small Cell Lung Carcinoma). The description is as above. An outline of the steps: as §1

`CCc1c2c(nc3ccc(O)cc13)-c1cc3c(c(=O)n1C2)COC(=O)[C@]3(O)CC` [SN-38] + O=C(c1cc(Cc2n[nH]c(=O)c3ccccc23)ccc1F)N1CCN(C(=O)C2CC2)CC1 [Olaparib] (first compound max 0.3 µM, 7x7, partner max 10 µM): the Bliss excess in assay [1] was 0.0289. Moreover, the “combination Emax” value was found to be 0.766 in assay [2], 1 in assay [3] and 0.805 in assay [4].

On to `COc1cccc(OCCCN)c1-c1cc(Nc2cnc(C#N)cn2)n[nH]1` [Prexasertib] + O=C(c1cc(Cc2n[nH]c(=O)c3ccccc23)ccc1F)N1CCN(C(=O)C2CC2)CC1 [Olaparib] (first compound max 1 µM, 7x7, partner max 10 µM), for which the Bliss excess in assay [1] is -0.0874. The figures for the “combination Emax” value in assay [2], in assay [3] and in assay [4] were 0.456, 0.631 and 0.885, respectively.

In the case of `C=CCn1c(=O)c2cnc(Nc3ccc(N4CCN(C)CC4)cc3)nc2n1-c1cccc(C(C)(C)O)n1` [AZD1775] + C1CN(CCC1(C(=O)N[C@@H](CCO)C2=CC=C(C=C2)Cl)N)C3=NC=NC4=C3C=CN4 [Capivasertib] (first compound max 3 µM, partner max 3 µM), the Bliss excess was -0.0204 in assay [5], -0.0584 in assay [1] and -0.0643 in assay [6]. The “combination Emax” value in assay [7] came out at 0.936; in assay [2] it was 0.555; in assay [3], 0.858; in assay [4], 0.583; in assay [8] it was 0.901.

Take `CCN(CCO)CCCOc1ccc2c(Nc3cc(CC(=O)Nc4cccc(F)c4)[nH]n3)ncnc2c1` [AZD2811] + O=C(c1cc(Cc2n[nH]c(=O)c3ccccc23)ccc1F)N1CCN(C(=O)C2CC2)CC1 [Olaparib] (first compound max 1 µM, 7x7, partner max 10 µM): the Bliss excess in assay [1] worked out at 0.0344. Also, the “combination Emax” value was determined as 0.0979 in assay [2], 0.67 in assay [3] and 0.257 in assay [4].

As for `Cc1cc2ncnn2cc1Nc1ncc2c(n1)n(C1CCOCC1)c(=O)n2C` [AZD7648] + C=CCn1c(=O)c2cnc(Nc3ccc(N4CCN(C)CC4)cc3)nc2n1-c1cccc(C(C)(C)O)n1 [AZD1775] (first compound max 10 µM, partner max 1 µM), the Bliss excess in assay [1] is -0.062. The “combination Emax” value came to 0.442 in assay [2], 0.482 in assay [3] and 0.824 in assay [4].

For the compound `Cc1cc2ncnn2cc1Nc1ncc2c(n1)n(C1CCOCC1)c(=O)n2C` [AZD7648] + CN(C)CCCOc1ccc(-c2ccc3ncc4c(c3c2)n(C2CCOCC2)c(=O)n4C)cn1 [AZD0156] (first compound max 10 µM, 7x7, partner max 1 µM), the Bliss excess in assay [1] was 0.0361. In addition, the “combination Emax” value in assay [2] was determined as 0.205; in assay [3], 0.352; in assay [4], 0.322.

With `COc1cccc(OCCCN)c1-c1cc(Nc2cnc(C#N)cn2)n[nH]1` [Prexasertib] + Cc1cc2ncnn2cc1Nc1ncc2c(n1)n(C1CCOCC1)c(=O)n2C [AZD7648] (first compound max 1 µM, 7x7, partner max 10 µM), in assay [1], the Bliss excess was -0.0498. The “combination Emax” value in assay [2] amounted to 0.489; in assay [3], 0.468; in assay [4], 0.94.

As to `COc1cccc(OCCCN)c1-c1cc(Nc2cnc(C#N)cn2)n[nH]1` [Prexasertib] + CCc1c2c(nc3ccc(O)cc13)-c1cc3c(c(=O)n1C2)COC(=O)[C@]3(O)CC [SN-38] (first compound max 1 µM, 7x7, partner max 0.3 µM), the Bliss excess in assay [1] was -0.0763. The results for the “combination Emax” value in assay [2], in assay [3] and in assay [4] were 0.802, 0.993 and 0.922, respectively.

For `CN(C)CCCOc1ccc(-c2ccc3ncc4c(c3c2)n(C2CCOCC2)c(=O)n4C)cn1` [AZD0156] + O=C(c1cc(Cc2n[nH]c(=O)c3ccccc23)ccc1F)N1CCN(C(=O)C2CC2)CC1 [Olaparib] (first compound max 3 µM, partner max 3 µM), the results for the Bliss excess in assay [5], in assay [1] and in assay [6] were 0.165, -0.037 and 0.0397, respectively. Besides, the “combination Emax” value in assay [7] is 0.598; in assay [2], 0.155; in assay [3] it was 0.585; in assay [4], 0.356; in assay [8], 0.598.

For `Cc1cc2ncnn2cc1Nc1ncc2c(n1)n(C1CCOCC1)c(=O)n2C` [AZD7648] + C[C@@H]1COCCN1C2=NC(=NC(=C2)C3(CC3)[S@](=N)(=O)C)C4=C5C=CNC5=NC=C4 [AZD6738] (first compound max 10 µM, 7x7, partner max 10 µM), the Bliss excess in assay [1] was -0.0214. The entries for the “combination Emax” value in assay [2], in assay [3] and in assay [4] were 0.401, 0.443 and 0.713, respectively.

In the case of `CN(C)CCCOc1ccc(-c2ccc3ncc4c(c3c2)n(C2CCOCC2)c(=O)n4C)cn1` [AZD0156] + CCN(CCO)CCCOc1ccc2c(Nc3cc(CC(=O)Nc4cccc(F)c4)[nH]n3)ncnc2c1 [AZD2811] (first compound max 1 µM, 7x7, partner max 1 µM), in assay [1], the Bliss excess was -0.0294. Also, the “combination Emax” value in assay [2] was 0.125; in assay [3], 0.608; in assay [4], 0.292.

On to `COc1cccc(OCCCN)c1-c1cc(Nc2cnc(C#N)cn2)n[nH]1` [Prexasertib] + C[C@@H]1COCCN1C2=NC(=NC(=C2)C3(CC3)[S@](=N)(=O)C)C4=C5C=CNC5=NC=C4 [AZD6738] (first compound max 1 µM, 7x7, partner max 10 µM), for which the Bliss excess in assay [1] was -0.141. The “combination Emax” value in assay [2] turned out to be 0.426; in assay [3], 0.486; in assay [4], 0.94.

As for `CN(C)CCCOc1ccc(-c2ccc3ncc4c(c3c2)n(C2CCOCC2)c(=O)n4C)cn1` [AZD0156] + C=CCn1c(=O)c2cnc(Nc3ccc(N4CCN(C)CC4)cc3)nc2n1-c1cccc(C(C)(C)O)n1 [AZD1775] (first compound max 1 µM, partner max 1 µM), the Bliss excess in assay [1] was found to be 0.014. Also, the “combination Emax” value in assay [2] stood at 0.379; in assay [3], 0.43; in assay [4], 0.857.

On to `COc1cccc(OCCCN)c1-c1cc(Nc2cnc(C#N)cn2)n[nH]1` [Prexasertib] + C=CCn1c(=O)c2cnc(Nc3ccc(N4CCN(C)CC4)cc3)nc2n1-c1cccc(C(C)(C)O)n1 [AZD1775] (first compound max 1 µM, partner max 1 µM), for which the Bliss excess in assay [1] is -0.0039. Moreover, the “combination Emax” value in assay [2] was 0.445; in assay [3], 0.736; in assay [4], 0.965.

As to `CCN(CCO)CCCOc1ccc2c(Nc3cc(CC(=O)Nc4cccc(F)c4)[nH]n3)ncnc2c1` [AZD2811] + C=CCn1c(=O)c2cnc(Nc3ccc(N4CCN(C)CC4)cc3)nc2n1-c1cccc(C(C)(C)O)n1 [AZD1775] (first compound max 1 µM, partner max 1 µM), the Bliss excess in assay [1] amounted to 0.0337. Moreover, the “combination Emax” value in assay [2] came to 0.407; in assay [3], 0.819; in assay [4] it was 0.881.

Regarding `CCN(CCO)CCCOc1ccc2c(Nc3cc(CC(=O)Nc4cccc(F)c4)[nH]n3)ncnc2c1` [AZD2811] + C[C@@H]1COCCN1C2=NC(=NC(=C2)C3(CC3)[S@](=N)(=O)C)C4=C5C=CNC5=NC=C4 [AZD6738] (first compound max 1 µM, 7x7, partner max 10 µM), the Bliss excess in assay [1] is -0.063. The “combination Emax” value in assay [2] worked out at 0.171; in assay [3] it was 0.775; in assay [4], 0.756.

Turning to `Cc1cc2ncnn2cc1Nc1ncc2c(n1)n(C1CCOCC1)c(=O)n2C` [AZD7648] + O=C(c1cc(Cc2n[nH]c(=O)c3ccccc23)ccc1F)N1CCN(C(=O)C2CC2)CC1 [Olaparib] (first compound max 10 µM, 7x7, partner max 10 µM), in assay [1], the Bliss excess was -0.0408. Further, the “combination Emax” value in assay [2] turned out to be 0.157; in assay [3], 0.413; in assay [4], 0.263.

In the case of `C[C@@H]1COCCN1c1cc(C2([S@](C)(=N)=O)CC2)nc(-c2ccnc3[nH]ccc23)n1` [AZD6738] + O=C(c1cc(Cc2n[nH]c(=O)c3ccccc23)ccc1F)N1CCN(C(=O)C2CC2)CC1 [Olaparib] (first compound max 10 µM, 7x7, partner max 10 µM), the Bliss excess in assay [1] is 0.0254. The entries for the “combination Emax” value in assay [2], in assay [3] and in assay [4] were 0.228, 0.59 and 0.751, respectively.
